{"source": "patent US9822130B2", "about": "“Triazolo-pyrazinyl derivatives useful as soluble guanylate cyclase activators” (Merck Sharp & Dohme Corp., priority 2014, dated 2017)", "key": {"[1]": {"target": "T1, sGC α1/β1 heterodimer stably expressed in CHO-K1 cell line (CHO-K1/sGC) (Homo sapiens, UniProt Q02108+Q02153)", "T1 construct": "expressed in transfected cells", "T1 sequence (Q02108 1-690)": "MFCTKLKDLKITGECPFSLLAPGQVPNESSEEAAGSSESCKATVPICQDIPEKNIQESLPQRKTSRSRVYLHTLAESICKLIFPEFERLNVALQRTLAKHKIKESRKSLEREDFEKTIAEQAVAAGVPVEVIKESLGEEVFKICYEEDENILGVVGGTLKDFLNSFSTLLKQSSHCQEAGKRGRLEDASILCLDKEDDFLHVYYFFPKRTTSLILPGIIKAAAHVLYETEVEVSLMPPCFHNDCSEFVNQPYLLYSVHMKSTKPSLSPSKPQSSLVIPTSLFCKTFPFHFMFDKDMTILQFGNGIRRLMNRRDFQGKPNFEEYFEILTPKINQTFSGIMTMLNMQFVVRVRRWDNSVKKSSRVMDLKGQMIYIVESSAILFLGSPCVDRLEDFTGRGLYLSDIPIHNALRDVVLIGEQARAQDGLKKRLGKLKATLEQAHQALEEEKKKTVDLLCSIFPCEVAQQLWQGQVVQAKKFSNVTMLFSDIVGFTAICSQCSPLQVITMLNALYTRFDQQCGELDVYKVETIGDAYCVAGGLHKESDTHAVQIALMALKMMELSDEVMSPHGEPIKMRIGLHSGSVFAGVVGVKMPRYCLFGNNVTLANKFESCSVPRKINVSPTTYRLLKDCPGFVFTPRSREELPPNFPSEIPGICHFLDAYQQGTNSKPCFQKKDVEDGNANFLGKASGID", "T1 sequence (Q02153 1-619)": "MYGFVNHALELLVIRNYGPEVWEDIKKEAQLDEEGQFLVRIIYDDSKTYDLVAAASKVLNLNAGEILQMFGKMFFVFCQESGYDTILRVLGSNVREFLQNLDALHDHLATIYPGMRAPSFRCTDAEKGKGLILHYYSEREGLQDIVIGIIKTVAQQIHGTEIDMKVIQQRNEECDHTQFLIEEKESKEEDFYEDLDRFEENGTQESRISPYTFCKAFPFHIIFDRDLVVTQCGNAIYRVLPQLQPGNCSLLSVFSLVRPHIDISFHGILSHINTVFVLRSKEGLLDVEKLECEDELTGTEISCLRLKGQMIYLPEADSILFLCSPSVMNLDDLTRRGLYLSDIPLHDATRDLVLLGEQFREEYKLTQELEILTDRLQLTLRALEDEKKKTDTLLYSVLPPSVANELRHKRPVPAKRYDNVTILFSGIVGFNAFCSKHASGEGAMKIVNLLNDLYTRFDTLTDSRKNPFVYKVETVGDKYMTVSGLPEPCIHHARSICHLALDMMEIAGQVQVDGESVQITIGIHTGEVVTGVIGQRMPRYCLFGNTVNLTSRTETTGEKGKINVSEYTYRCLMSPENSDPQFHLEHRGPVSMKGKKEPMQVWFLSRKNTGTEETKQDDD", "assay": "Cell-based sGC Functional Assay (CASA Assay), cGMP generation", "conditions": "CHO-K1/sGC cells, 1 hr at 37° C., cGMP by HTRF, presence or absence of 1 μM DETA-NO not given; for EC50: 4P fit, read-out: IP (nM) (inflection point)", "method_in_brief": "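CHO-K1 cells stably expressing human sGC α1/β1 (4×10^5/mL, 0.5 mM IBMX) were treated with compounds (2.5% DMSO final) ± 1 μM DETA-NO for 1 hr at 37° C. Intracellular cGMP measured by HTRF. Activity expressed as % of Compound A maximal cGMP; IP and maximum fold induction from 4P fit.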"}, "[2]": {"assay": "IV Cassette PK Assay in rats", "format": "in vivo", "conditions": "rat, male Wistar-Han rats, plasma, LC-MS/MS, read-out: Cassette PK T1/2 (converted)", "protocol": "The results were obtained using the following the procedure:\nAdult male Wistar-Han rats were fasted overnight and administered a cassette IV dose of mixture of several compounds via a previously implanted catheter in the femoral vein. Animals were allowed access to food 4 h post dose. Blood samples were collected into EDTA-containing tubes at the following time points: 0.03, 0.13, 0.25, 0.5, 1, 2, 4, 8 h post-dose. Blood samples were stored on ice until plasma was harvested by centrifugation. Plasma was transferred to a 96-well plate and stored at −20° C. until analysis. Concentrations of each compound in rat plasma were determined by LC-MS/MS following protein precipitation."}}}
{"smiles": "Nc1nc(-c2cn3ncnc3c(CCCC(F)(F)F)n2)nc2c1C(c1ccc(C(F)F)cn1)(C1CC1)C(=O)N2", "note": "(racemic) [Example 44B, 4-amino-5-cyclopropyl-5-(5-(difluoromethyl)pyridin-2-yl)-2-(8-(4,4,4-trifluorobutyl)-[1,2,4]triazolo[1,5-a]pyrazin-6-yl)-5H-pyrrolo[2,3-d]pyrimidin-6(7H)-one]", "values": [{"measurement": "EC50", "setting": "[1]", "result": 111, "unit": "nM"}, {"measurement": "half-life", "setting": "[2]", "result": 3.94, "unit": "h"}]}
{"smiles": "CC1(c2ccc(F)cn2)C(=O)Nc2nc(-c3cn4ncnc4c(CCC(F)(F)C(F)(F)F)n3)nc(N)c21", "note": "(stereo not drawn) [Example 4B, 4-amino-5-(5-fluoropyridin-2-yl)-5-methyl-2-(8-(3,3,4,4,4-pentafluorobutyl)-[1,2,4]triazolo[1,5-a]pyrazin-6-yl)-5H-pyrrolo[2,3-d]pyrimidin-6(7H)-one]", "values": [{"measurement": "EC50", "setting": "[1]", "result": 117, "unit": "nM"}, {"measurement": "half-life", "setting": "[2]", "result": 2.97, "unit": "h"}]}
{"smiles": "C[C@@]1(c2ccc(F)cc2)C(=O)Nc2nc(-c3cn4ncnc4c(CCC(F)(F)C(F)(F)F)n3)nc(N)c21", "note": "[Example 1A, (S)-4-Amino-5-(4-fluorophenyl)-5-methyl-2-(8-(3,3,4,4,4-pentafluorobutyl)-[1,2,4]triazolo[1,5-a]pyrazin-6-yl)-5H-pyrrolo[2,3-d]pyrimidin-6(7H)-one]", "values": [{"measurement": "EC50", "setting": "[1]", "result": 187, "unit": "nM"}, {"measurement": "half-life", "setting": "[2]", "result": 3.35, "unit": "h"}]}
{"smiles": "CC1(c2ccc(F)cc2)C(=O)Nc2nc(-c3cn4ccnc4c(CCC(F)(F)C(F)(F)F)n3)nc(N)c21", "note": "(stereo not drawn) [reference compound]", "values": [{"measurement": "half-life", "setting": "[2]", "result": 1.04, "unit": "h"}]}
{"smiles": "O=C1Nc2nc(-c3cn4ncnc4c(CCC(F)(F)C(F)(F)F)n3)nc(O)c2C1(c1ccc(F)c(F)c1)C1CC1", "note": "(stereo not drawn) [Example 123A, 5-cyclopropyl-5-(3,4-difluorophenyl)-4-hydroxy-2-(8-(3,3,4,4,4-pentafluorobutyl)-[1,2,4]triazolo[1,5-a]pyrazin-6-yl)-5H-pyrrolo[2,3-d]pyrimidin-6(7H)-one]", "values": [{"measurement": "EC50", "setting": "[1]", "result": 204, "unit": "nM"}]}
{"smiles": "CCCCc1nc(-c2nc(O)c3c(n2)NC(=O)C3(C)c2ccc(Cl)c(F)c2)cn2ncnc12", "note": "(stereo not drawn) [Example 156B, 2-(8-butyl-[1,2,4]triazolo[1,5-a]pyrazin-6-yl)-5-(4-chloro-3-fluorophenyl)-4-hydroxy-5-methyl-5H-pyrrolo[2,3-d] pyrimidin-6(7H)-one]", "values": [{"measurement": "EC50", "setting": "[1]", "result": 23.3, "unit": "nM"}]}
{"smiles": "CC1(c2ccccc2)C(=O)Nc2nc(-c3cn4ncnc4c(CCC(F)(F)C(F)(F)F)n3)nc(O)c21", "note": "(stereo not drawn) [Example 128B, 4-hydroxy-5-methyl-2-(8-(3,3,4,4,4-pentafluorobutyl)-[1,2,4]triazolo[1,5-a]pyrazin-6-yl)-5-phenyl-5H-pyrrolo[2,3-d]pyrimidin-6(7H)-one]", "values": [{"measurement": "EC50", "setting": "[1]", "result": 128, "unit": "nM"}]}
{"smiles": "CCCCc1nc(-c2nc(N)c3c(n2)NC(=O)C3(C)c2nnc(C(F)(F)F)o2)cn2ncnc12", "note": "(stereo not drawn) [Example 102A, 4-amino-2-(8-butyl-[1,2,4]triazolo[1,5-a]pyrazin-6-yl)-5-methyl-5-(5-(trifluoromethyl)-1,3,4-oxadiazol-2-yl)-5H-pyrrolo[2,3-d]pyrimidin-6(7H)-one]", "values": [{"measurement": "EC50", "setting": "[1]", "result": 29.1, "unit": "nM"}]}
{"smiles": "CC1(c2ccc(F)cn2)C(=O)Nc2nc(-c3cn4ncnc4c(CCC(F)(F)C(F)(F)F)n3)nc(O)c21", "note": "(stereo not drawn) [Example 122B, 5-(5-fluoropyridin-2-yl)-4-hydroxy-5-methyl-2-(8-(3,3,4,4,4-pentafluorobutyl)-[1,2,4]triazolo[1,5-a]pyrazin-6-yl)-5H-pyrrolo[2,3-d]pyrimidin-6(7H)-one]", "values": [{"measurement": "EC50", "setting": "[1]", "result": 141, "unit": "nM"}, {"measurement": "Emax", "setting": "[1]; read-out: % Act. (percent activation relative to maximum cGMP production of Compound A = 100%)", "result": 100, "unit": "%"}]}
{"smiles": "CC1(c2ccc(O)cn2)C(=O)Nc2nc(-c3cn4ncnc4c(CCCC(F)(F)F)n3)nc(N)c21", "note": "(stereo not drawn) [Example 111A, 4-amino-5-(5-hydroxypyridin-2-yl)-5-methyl-2-(8-(4,4,4-trifluorobutyl)-[1,2,4]triazolo[1,5-a]pyrazin-6-yl)-5H-pyrrolo[2,3-d]pyrimidin-6(7H)-one]", "values": [{"measurement": "EC50", "setting": "[1]", "result": 370, "unit": "nM"}]}
{"smiles": "Nc1nc(-c2cn3ncnc3c(CCCC(F)(F)F)n2)nc2c1C(c1nnc(C3(F)CC3)o1)(C1CC1)C(=O)N2", "note": "(stereo not drawn) [Example 108A, 4-amino-5-cyclopropyl-5-(5-(1-fluorocyclopropyl)-1,3,4-oxadiazol-2-yl)-2-(8-(4,4,4-trifluorobutyl)-[1,2,4]triazolo[1,5-a]pyrazin-6-yl)-5H-pyrrolo[2,3-d] pyrimidin-6(7H)-one]", "values": [{"measurement": "EC50", "setting": "[1]", "result": 14.7, "unit": "nM"}]}
{"smiles": "CCCc1nc(-c2nc(O)c3c(n2)NC(=O)[C@@]3(C)c2ccc(F)cc2)cn2ncnc12", "note": "[Example 165A, (S)-5-(4-fluorophenyl)-4-hydroxy-5-methyl-2-(8-propyl-[1,2,4]triazolo[1,5-a]pyrazin-6-yl)-5,7-dihydro-6H-pyrrolo[2,3-d]pyrimidin-6-one]", "values": [{"measurement": "EC50", "setting": "[1]", "result": 1520, "unit": "nM"}]}
{"smiles": "CC1(c2ccc(C(F)(F)F)cc2)C(=O)Nc2nc(-c3cn4ncnc4c(CCC(F)(F)F)n3)nc(N)c21", "note": "(stereo not drawn) [Example 77B, 4-amino-5-methyl-5-(4-(trifluoromethyl)phenyl)-2-(8-(3,3,3-trifluoropropyl)-[1,2,4]triazolo[1,5-a]pyrazin-6-yl)-5H-pyrrolo[2,3-d]pyrimidin-6(7H)-one]", "values": [{"measurement": "EC50", "setting": "[1]", "result": 333, "unit": "nM"}]}
{"smiles": "CC1(c2ccc(C(F)F)cn2)C(=O)Nc2nc(-c3cn4ncnc4c(CCCC(F)(F)F)n3)nc(N)c21", "note": "(stereo not drawn) [Example 43B, 4-amino-5-(5-(difluoromethyl)pyridin-2-yl)-5-methyl-2-(8-(4,4,4-trifluorobutyl)-[1,2,4]triazolo[1,5-a]pyrazin-6-yl)-5H-pyrrolo[2,3-d]pyrimidin-6(7H)-one]", "values": [{"measurement": "EC50", "setting": "[1]", "result": 45.6, "unit": "nM"}]}
{"smiles": "CC1(c2ccccn2)C(=O)Nc2nc(-c3cn4ncnc4c(CCC(F)(F)C(F)(F)F)n3)nc(O)c21", "note": "(stereo not drawn) [Example 127B, 4-hydroxy-5-methyl-2-(8-(3,3,4,4,4-pentafluorobutyl)-[1,2,4]triazolo[1,5-a]pyrazin-6-yl)-5-(pyridin-2-yl)-5H-pyrrolo[2,3-d]pyrimidin-6(7H)-one]", "values": [{"measurement": "EC50", "setting": "[1]", "result": 1260, "unit": "nM"}]}
{"smiles": "O=C1Nc2nc(-c3cn4ncnc4c(CCCC(F)(F)F)n3)nc(O)c2C1(c1ccc(F)c(F)c1)C1CC1", "note": "(stereo not drawn) [Example 141A, 5-cyclopropyl-5-(3,4-difluorophenyl)-4-hydroxy-2-(8-(4,4,4-trifluorobutyl)-[1,2,4]triazolo[1,5-a]pyrazin-6-yl)-5H-pyrrolo[2,3-d]pyrimidin-6(7H)-one]", "values": [{"measurement": "EC50", "setting": "[1]", "result": 183, "unit": "nM"}]}
{"smiles": "CCCc1nc(-c2nc(N)c3c(n2)NC(=O)[C@@]3(C)c2ccc(F)cc2)cn2nc(C)nc12", "note": "[Example 91A, (S)-4-amino-5-(4-fluorophenyl)-5-methyl-2-(2-methyl-8-propyl-[1,2,4]triazolo[1,5-a]pyrazin-6-yl)-5,7-dihydro-6H-pyrrolo[2,3-d]pyrimidin-6-one]", "values": [{"measurement": "EC50", "setting": "[1]", "result": 668, "unit": "nM"}]}
